The source of these data is PMC8056384 (ACS Chemical Biology, 2021).

Each structure is given as a SMILES string. “And” between values parts separate entries of the source, which are not always exact repeats. Equal entries are not always repeated.

For assay [1], the target named is T1, hGALK1 (Homo sapiens, UniProt P51570, E253A/K252A).
T1 construct: A hGALK1 construct, encoding full-length protein harboring the surface entropy[41] mutations K252A:E253A; His6 (N); made in house; host or cells: E. coli BL21(DE3)
T1 sequence (P51570 whole entry K252A/E253A): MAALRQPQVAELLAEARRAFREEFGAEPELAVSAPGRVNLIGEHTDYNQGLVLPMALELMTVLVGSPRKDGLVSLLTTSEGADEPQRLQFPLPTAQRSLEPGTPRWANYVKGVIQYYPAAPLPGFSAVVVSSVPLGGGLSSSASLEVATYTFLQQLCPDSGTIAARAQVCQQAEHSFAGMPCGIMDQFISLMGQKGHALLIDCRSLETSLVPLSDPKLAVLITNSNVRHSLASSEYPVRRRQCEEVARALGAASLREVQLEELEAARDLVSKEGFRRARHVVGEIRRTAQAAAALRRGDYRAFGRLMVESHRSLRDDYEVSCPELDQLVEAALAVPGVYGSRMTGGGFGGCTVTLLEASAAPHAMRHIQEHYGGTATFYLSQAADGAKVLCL
In words: Amplex Red fluorescence-based hGALK1 activity assay (coupled with galactose oxidase). The assay is classed as biochemical. On the set-up: Vmaxapp, substrate ATP, with ligand (+) / Kmapp, substrate ATP, with ligand (+): unit not given here. From the text: Consequently, to confirm the mode of inhibition of the spiro-benzoxazole inhibitors with respect to ATP, we adopted the Amplex Red fluorescence-based assay[33],[34] by coupling the hGALK1 reaction with D. dendroides galactose oxidase (GAO; EC 1.1.3.9) to measure the level of galactose remaining after being depleted as a substrate for hGALK1. In this method, hydrogen peroxide generated by the oxidation of galactose by GAO is used by horseradish peroxidase to convert the nonfluorescent substrate Amplex Red into its highly fluorescent product resorufin; therefore, the resultant fluorescent signal is inversely proportional to hGALK1 enzyme activity. We optimized several parameters of this assay to allow measurement of hGALK1 activity for the first time (Figure S3; Supplementary Results).
The Amplex Red assay reagent contained horseradish peroxidase (EC 1.11.1.7, 0.2 U/mL), its substrate Amplex Red (10-acetyl-3,7-dihydroxyphenoxazine, 100 μM), and galactose oxidase (EC 1.1.3.9, 4 U/mL). The assay buffer used was the same as in the Kinase-Glo assay. […] Amplex Red reagent was added at a 1:1 volume to the hGALK1 reaction after 1-h incubation at RT. Fluorescence emission was measured at 585 nm, with excitation at 570 nm, after a further incubation period of 40 minutes, using a Pherastar FSX plate reader with a FI 540 590 optics module. Reactions were performed in technical triplicates for two biological replicates, and data were plotted and fitted as described for the Kinase-Glo assay except that the reaction rate, defined as total galactose consumed over the 1-h hGALK1 reaction, was determined using the following equation, where Fluorreaction = mean value of measured fluorescence of each reaction and Fluor50 = measured fluorescence with no galactose (i.e., fluorescence of 50 μM galactose): [drawing 2]

The target of a further assay is T2, hMVK (Homo sapiens, UniProt Q03426).
T2 construct: Constructs encoding full-length hGALK2 (Met1-Ala458) and hMVK (Met1-Leu396); His6-Strep-Strep tag followed by TEV protease cleavage site (N); made in house; host or cells: E. coli BL21(DE3)
T2 sequence (Q03426 whole entry): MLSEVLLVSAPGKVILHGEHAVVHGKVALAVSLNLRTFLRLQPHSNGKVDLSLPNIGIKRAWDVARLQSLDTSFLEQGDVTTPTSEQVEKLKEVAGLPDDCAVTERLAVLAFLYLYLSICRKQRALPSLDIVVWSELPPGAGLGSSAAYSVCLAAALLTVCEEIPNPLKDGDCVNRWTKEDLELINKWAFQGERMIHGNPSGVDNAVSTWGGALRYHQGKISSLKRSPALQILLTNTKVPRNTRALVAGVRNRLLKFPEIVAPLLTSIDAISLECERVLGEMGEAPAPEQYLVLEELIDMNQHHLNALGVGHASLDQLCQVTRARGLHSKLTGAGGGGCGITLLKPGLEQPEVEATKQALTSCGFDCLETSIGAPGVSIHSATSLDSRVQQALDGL
In words: Kinase-Glo hMVK activity assay. Format: biochemical. The note with it: 1 mM compound. On the procedure: (§1) hGALK1 activity in vitro was determined using the Kinase-Glo luminescent kinase assay (Promega), according to the manufacturer’s protocol. […] Similarly, hGALK2 activity and inhibition was measured with reactions containing 50 nM hGALK2, 100 μM N-acetylgalactosamine, and 35 μM ATP in the above-described buffer and hMVK activity and inhibition was measured with reactions containing 250 nM hMVK, 100 μM mevalonate, and 35 μM ATP in the above-described buffer. Following a 1-h RT incubation, 10 μL of Kinase-Glo Plus detection reagent was added (final assay volume: 20 μL/well), and after a further 20 minutes RT incubation, luminescence was detected using a Pherastar FSX plate reader (BMG Labtech) containing a luminescence optics module. To determine the inhibition mode with respect to galactose, 10 nM hGALK1 and 35 μM ATP in an assay buffer was added to an array of six fragment (0–15 mM) or 12 compound (0–2 mM) concentrations against six galactose concentrations (0–250 μM), with a final reaction volume of 10 μL/well dispensed into 384-well assay plates (Greiner), and measured as described above. All reactions were performed in technical triplicates for two different preparations of hGALK1. Reaction rate, defined as total ATP consumed over the 1-h hGALK1 reaction, was determined using the following equation, where Lumreaction = mean value of measured luminescence of each reaction and Lum35 = measured luminescence with no galactose (i.e., luminescence of 35 μM ATP): [drawing 1]

Assay [2] addresses T1, hGALK1. In words: Surface plasmon resonance (SPR) binding assay. The note with it: hGALK1 immobilized on CM5 chip, analyte 0.195–200 μM, n = 1. On the procedure: Purified hGALK1 (30 μg/mL), diluted in acetate buffer at pH 5, was attached via covalent coupling to a density of 13000 RU on a CM5 chip. The assay buffer was 50 mM sodium phosphate, pH 7.5, 200 mM NaCl, 0.5 mM TCEP, 5% DMSO, and 0.05% TWEEN20. A serial dilution (11 concentrations) was prepared in the above buffer for each analyte (3, 11–13) by 1:1 dilution from 200 μM to 0.195 μM, and the subsequent solutions were passed over the chip at a flow rate of 30 μL/min. Data are from an n = 1 experiment.

Another assay concerns the target T3, hGALK2 (Homo sapiens, UniProt Q01415).
T3 construct: Constructs encoding full-length hGALK2 (Met1-Ala458) and hMVK (Met1-Leu396); His6-Strep-Strep tag followed by TEV protease cleavage site (N); made in house; host or cells: E. coli BL21(DE3)
T3 sequence (Q01415 1-458): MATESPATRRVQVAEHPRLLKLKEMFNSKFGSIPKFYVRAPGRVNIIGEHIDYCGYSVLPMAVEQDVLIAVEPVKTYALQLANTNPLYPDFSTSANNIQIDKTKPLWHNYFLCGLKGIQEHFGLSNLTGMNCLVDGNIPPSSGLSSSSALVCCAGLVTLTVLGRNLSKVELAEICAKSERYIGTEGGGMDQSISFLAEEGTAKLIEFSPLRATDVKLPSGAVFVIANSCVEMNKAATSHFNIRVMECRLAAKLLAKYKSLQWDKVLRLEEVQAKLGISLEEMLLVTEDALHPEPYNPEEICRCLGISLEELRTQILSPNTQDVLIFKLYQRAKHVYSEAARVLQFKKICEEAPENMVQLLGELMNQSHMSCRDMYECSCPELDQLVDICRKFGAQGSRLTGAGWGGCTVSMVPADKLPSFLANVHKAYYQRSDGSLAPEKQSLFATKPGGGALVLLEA
In words: Kinase-Glo hGALK2 activity assay. The note with it: 1 mM compound. Format: biochemical. On the procedure:
as §1

In assay [3] the target is T1, hGALK1. In words: Kinase-Glo luminescent hGALK1 activity assay. Format: biochemical. On the set-up: Vmaxapp, substrate galactose, with ligand (+) / Kmapp, substrate galactose, with ligand (+): unit not given here. On the procedure:
hGALK1 activity in vitro was determined using the Kinase-Glo luminescent kinase assay (Promega), according to the manufacturer’s protocol. […] Following a 1-h RT incubation, 10 μL of Kinase-Glo Plus detection reagent was added (final assay volume: 20 μL/well), and after a further 20 minutes RT incubation, luminescence was detected using a Pherastar FSX plate reader (BMG Labtech) containing a luminescence optics module. […] All reactions were performed in technical triplicates for two different preparations of hGALK1.
Data were plotted using GraphPad Prism software; curve fitting was performed with a nonlinear least-squares regression fit to the mixed, competitive, noncompetitive, and uncompetitive inhibition models from the GraphPad Prism enzyme kinetics–inhibition equations and the best fit selected by comparison of Akaike’s Information Criterion (AICc) probability scores and extra sum-of-squares F test P values calculated by the software.

Where [4] appears, read: 50 µM galactose, maximum tested concentration: 1 mM T1, 15 mM fragment 3, 2 mM 11–13.
Setting [5] is: concentration achieving 50% inhibition, IC50 not determinable, lower potency.
[6] abbreviates: 35 µM ATP, maximum tested concentration: 1 mM T1, 15 mM fragment 3, 2 mM 11–13.

As to `COc1ccc(Cl)cc1C(=O)NC1CCN(c2ncccn2)CC1` [compound 13], the “mode of inhibition with respect to ATP” value on hGALK1 [1] (50 μM galactose, 0–250 μM ATP, best-fit model in GraphPad Prism) is on record as “noncompetitive”. The “Kmapp, substrate ATP, with ligand (+)” value at hGALK1 [1] (setting [4]) came to 46.5 ± 4.5. Further, the “Vmaxapp, substrate ATP, with ligand (+)” value at hGALK1 [1] (setting [4]) stood at 14.7 ± 3.0. For the same molecule, the inhibition at 2000 µM on hGALK1 [1] (2 mM compound) and against hGALK1 [3] (2 mM compound) was greater than 50% throughout. Moreover, the IC50 at hGALK1 [1] (setting [5]) and against hGALK1 [3] (setting [5]) was roughly 1000 µM each time. Moreover, the inhibition at 1000 µM at hMVK and at hGALK2 was less than 10% each time. Moreover, the Kd on hGALK1 [2] was ~200 µM and ~203 µM. For the same molecule, the “mode of inhibition with respect to galactose” value at hGALK1 [3] (35 μM ATP, 0–250 μM galactose, best-fit model in GraphPad Prism) was “mixed”. Also, at hGALK1 [3] (setting [6]), the “Kmapp, substrate galactose, with ligand (+)” value stood at 143.6 ± 7.6. Further, at hGALK1 [3] (setting [6]), the “Vmaxapp, substrate galactose, with ligand (+)” value came out at 4.4 ± 0.4.
